Here are results for 1 compound from paper PMC9994261 (Cell, 2023).

≈ marks a conversion by molar mass, not a printed value. Read-outs that look alike come from different tables or passages of the source.

The target of series [1] is T1, CYP3A4 (Homo sapiens, UniProt P08684).
T1 construct: human liver microsomes (purchased from BD Gentest as a pooled batch from 150 donors); tissue BD Gentest Cat#452117; host or cells: pooled human liver microsomes (150 donors)
The series is described as follows: CYP3A4 reversible inhibition in human liver microsomes. Format: in vitro ADME. The method, then:
Incubations were performed with 0.1 mg/mL human liver microsomes (purchased from BD Gentest as a pooled batch from 150 donors) in a final incubation volume of 0.25 mL. The incubation medium contained 0.05 M phosphate buffer (pH 7.4) containing an NADPH regenerating system (including 1.3 mM NADP, 3.3 mM glucose 6-phosphate,3.3 mM MgCl2, and 1.0 U/mL glucose 6-phosphate dehydrogenase). Probe CYP3A4 substrates (midazolam at 3 μM and testosterone at 50 μM), were incubated for 10 and 30 min, respectively, with increasing concentrations of GM, MGM or CGM (concentration range: 1 - 30 μM). The reaction was stopped by adding acetonitrile to precipitate the proteins. The incubation mixtures were then centrifuged for 5 min at 10,000 × g, and an aliquot of the supernatant was analyzed using high-performance liquid chromatography coupled to mass spectrometry for the assessment of 1’-hydroxymidazolam and 6β-hydroxytestosterone metabolite formation.
On the technique in general: Liver microsomes are vesicles of endoplasmic reticulum, rich in cytochrome P450 enzymes.

Series [2] is described as follows: physchem. In kind it is physicochemical.
A short description of series [3]: in vivo. The note with it: male, Swiss, mouse, po; for AUC: oral 30 mg/kg.

T1 sequence (P08684 whole entry): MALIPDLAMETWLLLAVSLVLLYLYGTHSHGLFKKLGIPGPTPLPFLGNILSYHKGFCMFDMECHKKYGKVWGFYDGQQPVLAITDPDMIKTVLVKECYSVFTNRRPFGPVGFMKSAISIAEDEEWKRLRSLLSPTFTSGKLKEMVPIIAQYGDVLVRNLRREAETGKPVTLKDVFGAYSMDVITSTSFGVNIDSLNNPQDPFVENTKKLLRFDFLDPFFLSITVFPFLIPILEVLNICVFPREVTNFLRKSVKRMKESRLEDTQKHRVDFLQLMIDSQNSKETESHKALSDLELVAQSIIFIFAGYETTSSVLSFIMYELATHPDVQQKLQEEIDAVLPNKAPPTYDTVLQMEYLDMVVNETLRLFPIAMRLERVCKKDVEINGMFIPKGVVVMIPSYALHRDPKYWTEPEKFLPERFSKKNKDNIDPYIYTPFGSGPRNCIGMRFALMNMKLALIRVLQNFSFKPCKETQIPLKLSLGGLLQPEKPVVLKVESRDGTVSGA

Consider `CON=C1CC(C)OC(OC2C(C)CC(C)(OC(=O)NC(C)(C)CNS(=O)(=O)c3ccccc3)C(=O)C(C)C(OC(=O)CC(C)C)C(C)C(C(C)COC3OC(C)C(O)C(OC)C3OC)OC(=O)C(C)C(OC3CC(C)N(C)CC(C)O3)C2C)C1O` (stereo not drawn) [SEQ-9], for which the “Cytochrome 3A4 inhibition (in words)” value in series [1] is listed as “abolished”. Besides, the IC50 at 10 min in series [1] (human, microsomes, pH 7.4, midazolam, read-out: CYP3A4 inhibition, IC50 with midazolam as substrate) was more than 30 µM. For the same compound, in series [1] (human, microsomes, pH 7.4, testosterone, read-out: CYP3A4 inhibition, IC50 with testosterone as substrate (T)), the IC50 at 30 min was more than 50 µM. In addition, the solubility in series [2] (MCT pH 7.4, read-out: Solubility: MCT@pH 7.4) was found to be 530 µg/mL (≈ 426 µM); in series [2] (aqueous buffer, PBS pH 7.4, read-out: Solubility: PBS@pH 7.4) it was 51 µg/mL (≈ 41 µM). The same compound registered a bioavailability in series [3] of 23%. Besides, the AUC(0-t) came to 1100 ng·h/mL in series [3] (10 mg/kg, pH 4); 22000 ng·h/mL in series [3] (100 mg/kg); 11000 ng·h/mL in series [3] (100 mg/kg, pH 4); 21000 ng·h/mL in series [3] (300 mg/kg, pH 4). For the same compound, the Cmax was 140 ng/mL in series [3] (10 mg/kg, pH 4); 2130 ng/mL in series [3] (100 mg/kg); 1390 ng/mL in series [3] (100 mg/kg, pH 4); 3110 ng/mL in series [3] (300 mg/kg, pH 4). Besides, the half-life was 270 min in series [3] (10 mg/kg, pH 4, Lung t1/2, mouse po 10 mg/kg, PEG200/Tween80/Citrate Buffer 100mM pH4 (70/5/25)); 180 min in series [3] (10 mg/kg, pH 4, Plasma t1/2, mouse po 10 mg/kg, PEG200/Tween80/Citrate Buffer 100mM pH4 (70/5/25)); 270 min in series [3] (100 mg/kg, Lung t1/2, mouse po 100 mg/kg, Lipidic formulation CremophorRH40/Capryol90/Mygliol812N (10/20/70) diluted in ½ water); 252 min in series [3] (100 mg/kg, Plasma t1/2, mouse po 100 mg/kg, Lipidic formulation CremophorRH40/Capryol90/Mygliol812N (10/20/70) diluted in ½ water); 390 min in series [3] (100 mg/kg, pH 4, Lung t1/2, mouse po 100 mg/kg, PEG200/Tween80/Citrate Buffer 100mM pH4 (70/5/25)); 264 min in series [3] (100 mg/kg, pH 4, Plasma t1/2, mouse po 100 mg/kg, PEG200/Tween80/Citrate Buffer 100mM pH4 (70/5/25)). Also, the half-life in series [3] (300 mg/kg, pH 4, Lung t1/2, mouse po 300 mg/kg, PEG200/Tween80/Citrate Buffer 100mM pH4 (70/5/25)) was 660 min. The Kp in series [3] (30 mg/kg) stood at 19. Further, the AUC in series [3] (30 mg/kg, AUC in lung @30 mg/kg, lung) came to 120000 ng·h/mL; in series [3] (30 mg/kg, AUC in plasma @30 mg/kg, plasma) it was 6300 ng·h/mL.

In general, IC50 refers to the midpoint of a concentration-inhibition curve. One may read the solubility as the concentration that dissolves in the medium under given conditions. The bioavailability is dose-corrected exposure relative to a reference, in per cent. Low values mean little systemic uptake, high ones much systemic uptake. In general, AUC(0-t) refers to the area under the concentration-time curve up to a stated or last time point. Read a low AUC(0-t) as low exposure. By Cmax is commonly meant the peak of the concentration-time curve. In general, half-life refers to how long it takes for the measured level to halve. A lower half-life goes with fast loss. The term AUC denotes the area under the concentration-time curve, a measure of exposure. Read a high AUC as high exposure.
